Each structure is given as a SMILES string. Bounds are passed on as bounds.

One experiment deals with T1, rPAPD5 (Homo sapiens, UniProt Q8NDF8).
T1 construct: made in house
T1 sequence (Q8NDF8 68-698 isoform Q8NDF8-5 limits assumed): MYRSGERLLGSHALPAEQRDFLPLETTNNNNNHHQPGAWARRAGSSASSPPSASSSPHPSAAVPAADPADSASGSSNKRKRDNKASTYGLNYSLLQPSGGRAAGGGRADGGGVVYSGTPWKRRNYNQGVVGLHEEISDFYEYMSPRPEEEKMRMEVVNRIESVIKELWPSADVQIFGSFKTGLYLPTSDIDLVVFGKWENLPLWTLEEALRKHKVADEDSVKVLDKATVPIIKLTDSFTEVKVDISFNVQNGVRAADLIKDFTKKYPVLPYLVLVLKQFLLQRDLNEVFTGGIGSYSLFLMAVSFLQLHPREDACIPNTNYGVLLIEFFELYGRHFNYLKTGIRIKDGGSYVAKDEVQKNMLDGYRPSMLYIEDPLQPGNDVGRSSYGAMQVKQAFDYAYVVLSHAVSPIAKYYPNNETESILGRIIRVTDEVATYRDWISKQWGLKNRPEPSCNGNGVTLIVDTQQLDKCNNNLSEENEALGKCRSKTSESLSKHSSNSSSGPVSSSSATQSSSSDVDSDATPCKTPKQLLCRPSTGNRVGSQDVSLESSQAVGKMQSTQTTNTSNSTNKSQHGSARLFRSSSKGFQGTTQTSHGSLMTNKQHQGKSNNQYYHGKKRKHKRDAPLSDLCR
The experiment in a line: differential scanning fluorimetry (DSF) binding and stabilization of rPAPD5. The note with it: 10 μM test compound; shift vs DMSO control; read-out: ΔTm (Table 2, starred: the compound was tested at 10 μM). The method, then:
Binding and stabilization of rPAPD5 by test compounds was determined using differential scanning fluorimetry (DSF). DSF assays were performed to determine protein melting temperature using an indicator dye SYPRO orange (Thermo Fisher Scientific, S6651) diluted 1:5000 in […] of buffer containing […], […] (Jena Biosciences), 25 mM Tris-HCl, 5 mM MgCl2, 50 mM KCl. […] DMSO was used as a negative control. Each curve was an average of three measurements and Thermal Shift software (Thermo Fisher Scientific, 4466038) was used for analysis. […] The change in melting temperature (ΔTm) is in reference to the DMSO control. Referring to Table 2, “+” refers to ΔTm values below 1° C., “++” refers to ΔTm values from 1 to 5° C., and “+++” refers to ΔTm values above 5° C.
(Differential scanning fluorimetry follows unfolding on heating by fluorescence.)
What is called ΔTm is the change in melting temperature against a reference sample. Regarding `Cc1cc(OCc2ccccc2)ccc1-c1ccc2ncc(S(=O)(=O)N3CCOCC3)c(Nc3ccccc3C(=O)O)c2c1` [Compound 176A, 2-[[6-(4-benzyloxy-2-methyl-phenyl)-3-morpholinosulfonyl-4-quinolyl]amino]benzoic acid], the shift in melting temperature (ΔTm) at 10 µM was less than 1 °C.

Staying with this experiment, now noted: 100 μM test compound; shift vs DMSO control; read-out: ΔTm at 100 μM.
In the case of `O=C(O)c1ccccc1Nc1c(S(=O)(=O)N2CCOCC2)cnc2ccc(-c3cnccc3C(F)(F)F)cc12` [Compound 168A, 2-[[3-morpholinosulfonyl-6-[4-(trifluoromethyl)-3-pyridyl]-4-quinolyl]amino]benzoic acid], the ΔTm at 100 µM lay in the range of 1 to 5 °C.
The same measure, in the same setting: then `O=C(O)c1ccccc1Nc1c(S(=O)(=O)N2CCOCC2)cnc2ccc(-c3ccnc(N4CCNCC4)c3)cc12` [Compound 169A, 2-[[3-morpholinosulfonyl-6-(2-piperazin-1-yl-4-pyridyl)-4-quinolyl]amino]benzoic acid], with less than 1 °C; and `O=C1Cc2ccc(-c3ccc4ncc(S(=O)(=O)N5CCOCC5)c(Nc5ccccc5C(=O)O)c4c3)cc2N1` [Compound 170A, 2-[[3-morpholinosulfonyl-6-(2-oxoindolin-6-yl)-4-quinolyl]amino]benzoic acid], with 1 to 5 °C; and `CNc1ncc2cc(-c3ccc4ncc(S(=O)(=O)N5CCOCC5)c(Nc5ccccc5C(=O)O)c4c3)ccc2n1` [Compound 171A, 2-[[6-[2-(methylamino)quinazolin-6-yl]-3-morpholinosulfonyl-4-quinolyl]amino]benzoic acid], with 1 to 5 °C.
On to `O=C(O)c1ccccc1Nc1c(S(=O)(=O)N2CCOCC2)cnc2ccc(-c3ccc(S(=O)(=O)N4CCOCC4)cc3)cc12` [Compound 172A, 2-[[3-morpholinosulfonyl-6-(4-morpholinosulfonylphenyl)-4-quinolyl]amino]benzoic acid], for which the ΔTm at 100 µM fell in the range of 1 to 5 °C.
Turning to `O=C(O)c1ccc(-c2ccc3ncc(S(=O)(=O)N4CCOCC4)c(Nc4ccccc4C(=O)O)c3c2)cc1` [Compound 173A, 2-[[6-(4-carboxyphenyl)-3-morpholinosulfonyl-4-quinolyl]amino]benzoic acid], the thermal shift (ΔTm) at 100 µM lay in the range of 1 to 5 °C.
Same read-out and setting: in the case of `CCN(CC)C(=O)c1ccc(-c2ccc3ncc(S(=O)(=O)N4CCOCC4)c(Nc4ccccc4C(=O)O)c3c2)cc1` [Compound 174A, 2-[[6-[4-(diethylcarbamoyl)phenyl]-3-morpholinosulfonyl-4-quinolyl]amino]benzoic acid] it was less than 1 °C; in that of `O=C(O)c1ccccc1Nc1c(S(=O)(=O)N2CCOCC2)cnc2ccc(-c3ccc4c(c3)OCO4)cc12` [Compound 175A, 2-[[6-(1,3-benzodioxol-5-yl)-3-morpholinosulfonyl-4-quinolyl]amino]benzoic acid], greater than 5 °C; in that of `Cn1ncc2ccc(-c3ccc4ncc(S(=O)(=O)N5CCOCC5)c(Nc5ccccc5C(=O)O)c4c3)cc21` [Compound 177A, 2-[[6-(1-methylindazol-6-yl)-3-morpholinosulfonyl-4-quinolyl]amino]benzoic acid], 1 to 5 °C.
The same measure, in the same setting: in the case of `O=C(O)c1ccccc1Nc1c(S(=O)(=O)N2CCOCC2)cnc2ccc(-c3ccc(-n4cccn4)cc3)cc12` [Compound 178A, 2-[[3-morpholinosulfonyl-6-(4-pyrazol-1-ylphenyl)-4-quinolyl]amino]benzoic acid] it was 1 to 5 °C; in that of `CS(=O)(=O)Nc1ccc(-c2ccc3ncc(S(=O)(=O)N4CCOCC4)c(Nc4ccccc4C(=O)O)c3c2)cc1` [Compound 179A, 2-[[6-[4-(methanesulfonamido)phenyl]-3-morpholinosulfonyl-4-quinolyl]amino]benzoic acid], 1 to 5 °C; in that of `CN1CCN(c2ccc(-c3ccc4ncc(S(=O)(=O)N5CCOCC5)c(Nc5ccccc5C(=O)O)c4c3)cc2)CC1` [Compound 180A, 2-[[6-[4-(4-methylpiperazin-1-yl)phenyl]-3-morpholinosulfonyl-4-quinolyl]amino]benzoic acid], less than 1 °C.
Same read-out and setting: in the case of `O=C(O)c1ccccc1Nc1c(S(=O)(=O)N2CCOCC2)cnc2ccc(-c3ccc4[nH]cnc4c3)cc12` [Compound 182A, 2-[[6-(1H-benzimidazol-5-yl)-3-morpholinosulfonyl-4-quinolyl]amino]benzoic acid] it was 1 to 5 °C; in that of `O=C(O)c1ccccc1Nc1c(NC2CCOCC2)cnc2ccc(Cl)cc12` [Compound 184A, 2-[[6-chloro-3-(tetrahydropyran-4-ylamino)-4-quinolyl]amino]benzoic acid], greater than 5 °C; in that of `O=C(O)c1ccccc1Nc1c(NC2CCNCC2)cnc2ccc(Cl)cc12` [Compound 186A, 2-[[6-chloro-3-(4-piperidylamino)-4-quinolyl]amino]benzoic acid], 1 to 5 °C.
Consider `O=C(O)c1ccccc1Nc1c(NC2CCS(=O)(=O)CC2)cnc2ccc(Cl)cc12` [Compound 188A, 2-[[6-chloro-3-[(1,1-dioxothian-4-yl)amino]-4-quinolyl]amino]benzoic acid], for which the ΔTm at 100 µM is greater than 5 °C.
Same read-out and setting: then `O=C(O)c1ccccc1Nc1c(Nc2cncnc2)cnc2ccc(Cl)cc12` [Compound 191A, 2-[[6-chloro-3-(pyrimidin-5-ylamino)-4-quinolyl]amino]benzoic acid], with greater than 5 °C; and `O=C(O)c1ccccc1Nc1c(C2CCOCC2)cnc2c1CCCC2` [Compound 204A-BP, 2-[(3-tetrahydropyran-4-yl-5,6,7,8-tetrahydroquinolin-4-yl)amino]benzoic acid], with greater than 5 °C.
Take `O=C(O)c1ccccc1Nc1c(C2CCC(F)(F)CC2)cnc2ccc(Cl)cc12` [Compound 205A, 2-[[6-chloro-3-(4,4-difluorocyclohexyl)-4-quinolyl]amino]benzoic acid]: the shift in melting temperature (ΔTm) at 100 µM is greater than 5 °C.
On the same count and under the same terms, in the case of `O=C(O)c1ccccc1Nc1c(C2CCNCC2)cnc2ccc(Cl)cc12` [Compound 206A, 2-[[6-chloro-3-(4-piperidyl)-4-quinolyl]amino]benzoic acid] it was greater than 5 °C; in that of `O=C(O)c1ccccc1Nc1c(C2=CCNCC2)cnc2ccc(Cl)cc12` [Compound 206A-INT, 2-[[6-chloro-3-(1,2,3,6-tetrahydropyridin-4-yl)-4-quinolyl]amino]benzoic acid], greater than 5 °C.
The same measure, in the same setting: then `CN1CCC(c2cnc3ccc(Cl)cc3c2Nc2ccccc2C(=O)O)CC1` [Compound 207A, 2-[[6-chloro-3-(1-methyl-4-piperidyl)-4-quinolyl]amino]benzoic acid], with greater than 5 °C; and `CN1CC=C(c2cnc3ccc(Cl)cc3c2Nc2ccccc2C(=O)O)CC1` [Compound 207A-INT, 2-[[6-chloro-3-(1-methyl-3,6-dihydro-2H-pyridin-4-yl)-4-quinolyl]amino]benzoic acid], with greater than 5 °C; and `O=C(O)c1ccccc1Nc1c(C2CCS(=O)(=O)CC2)cnc2ccc(Cl)cc12` [Compound 208A, 2-[[6-chloro-3-(1,1-dioxothian-4-yl)-4-quinolyl]amino]benzoic acid], with greater than 5 °C.
On the same count and under the same terms, in the case of `O=C(O)c1ccccc1Nc1c(C2=CCS(=O)(=O)CC2)cnc2ccc(Cl)cc12` [Compound 208A-INT, 2-[[6-chloro-3-(1,1-dioxo-3,6-dihydro-2H-thiopyran-4-yl)-4-quinolyl]amino]benzoic acid] it was 1 to 5 °C.
For `O=C(O)c1ccccc1Nc1c(-c2ccncc2)cnc2ccc(Cl)cc12` [Compound 209A, 2-[[6-chloro-3-(4-pyridyl)-4-quinolyl]amino]benzoic acid], the ΔTm at 100 µM is greater than 5 °C.
The same measure, in the same setting: then `O=C(O)c1ccccc1Nc1c(-c2nccs2)cnc2ccc(Cl)cc12` [Compound 211A, 2-[(6-chloro-3-thiazol-2-yl-4-quinolyl)amino]benzoic acid], with greater than 5 °C; and `O=C(O)c1ccccc1Nc1c(-c2cnoc2)cnc2ccc(Cl)cc12` [Compound 212A, 2-[(6-chloro-3-isoxazol-4-yl-4-quinolyl)amino]benzoic acid], with 1 to 5 °C.
On to `O=C(O)c1ccccc1Nc1c(S(=O)(=O)NC2CCOCC2)cnc2ccc(Cl)cc12` [Compound 216A, 2-[[6-chloro-3-(tetrahydropyran-4-ylsulfamoyl)-4-quinolyl]amino]benzoic acid], for which the thermal shift (ΔTm) at 100 µM was greater than 5 °C.
Same read-out and setting: in the case of `O=C(O)c1ccccc1Nc1c(S(=O)(=O)NC2CCC(F)(F)CC2)cnc2ccc(Cl)cc12` [Compound 217A, 2-[[6-chloro-3-[(4,4-difluorocyclohexyl)sulfamoyl]-4-quinolyl]amino]benzoic acid] it was greater than 5 °C; in that of `CN1CCC(NS(=O)(=O)c2cnc3ccc(Cl)cc3c2Nc2ccccc2C(=O)O)CC1` [Compound 219A, 2-[[6-chloro-3-[(1-methyl-4-piperidyl)sulfamoyl]-4-quinolyl]amino]benzoic acid], 1 to 5 °C.
On the same count and under the same terms, in the case of `O=C(O)c1ccccc1Nc1c(S(=O)(=O)N2CCS(=O)(=O)CC2)cnc2ccc(Cl)cc12` [Compound 220A, 2-[[6-chloro-3-[(1,1-dioxo-1,4-thiazinan-4-yl)sulfonyl]-4-quinolyl]amino]benzoic acid] it was greater than 5 °C.
For `O=C(O)c1ccccc1Nc1c(S(=O)(=O)Nc2ccncc2)cnc2ccc(Cl)cc12` [Compound 221A, 2-[[6-chloro-3-(4-pyridylsulfamoyl)-4-quinolyl]amino]benzoic acid], the shift in melting temperature (ΔTm) at 100 µM was greater than 5 °C.
Regarding `NS(=O)(=O)c1ccc(NS(=O)(=O)c2cnc3ccc(Cl)cc3c2Nc2ccccc2C(=O)O)cc1` [Compound 231A, 2-[[6-chloro-3-[(4-sulfamoylphenyl)sulfamoyl]-4-quinolyl]amino]benzoic acid], the ΔTm at 100 µM is greater than 5 °C.
